Test: xn = mol fraction of the nth substance listed
Conditions: Liquid, Vibrating tube method

CCCCCCC [heptane] + O=C=O
Conditions	mass density [kg/m3]
332.8 K, 25003 kPa, x2 = 0.0218	677.55
332.83 K, 6993 kPa, x2 = 0.5085	682.63
332.83 K, 8019 kPa, x2 = 0.5085	685.45
332.83 K, 9012 kPa, x2 = 0.5085	688
332.83 K, 10004 kPa, x2 = 0.5085	690.4
332.83 K, 11006 kPa, x2 = 0.5085	692.81
332.83 K, 12005 kPa, x2 = 0.5085	695.15
332.83 K, 13003 kPa, x2 = 0.5085	697.36
332.83 K, 13999 kPa, x2 = 0.5085	699.53
332.83 K, 15005 kPa, x2 = 0.5085	701.72
332.83 K, 16003 kPa, x2 = 0.5085	703.82
332.83 K, 17000 kPa, x2 = 0.5085	706.1
332.83 K, 18006 kPa, x2 = 0.5085	708.26
332.83 K, 19000 kPa, x2 = 0.5085	710.51
332.83 K, 20000 kPa, x2 = 0.5085	712.6
332.83 K, 20991 kPa, x2 = 0.5085	714.75
332.83 K, 22000 kPa, x2 = 0.5085	716.83
332.83 K, 23003 kPa, x2 = 0.5085	718.86
332.83 K, 24000 kPa, x2 = 0.5085	720.81
332.83 K, 25002 kPa, x2 = 0.5085	722.78
342.59 K, 5015 kPa, x2 = 0.3148	660.43
342.59 K, 6006 kPa, x2 = 0.3148	662.35
342.59 K, 7008 kPa, x2 = 0.3148	664.12
342.59 K, 8003 kPa, x2 = 0.3148	665.96
342.59 K, 9023 kPa, x2 = 0.3148	667.75
342.59 K, 10000 kPa, x2 = 0.3148	669.58
342.59 K, 11004 kPa, x2 = 0.3148	671.39
342.59 K, 11999 kPa, x2 = 0.7514	668.27
342.59 K, 12012 kPa, x2 = 0.3148	673.16
342.59 K, 13009 kPa, x2 = 0.3148	674.92
342.59 K, 13078 kPa, x2 = 0.7514	677.39
342.59 K, 14002 kPa, x2 = 0.7514	684.02
342.59 K, 14006 kPa, x2 = 0.3148	676.58
342.59 K, 14980 kPa, x2 = 0.7514	690.44
342.59 K, 15007 kPa, x2 = 0.3148	678.19
342.59 K, 16000 kPa, x2 = 0.3148	679.78
342.59 K, 16000 kPa, x2 = 0.7514	696.41
342.59 K, 17006 kPa, x2 = 0.7514	701.98
342.59 K, 17008 kPa, x2 = 0.3148	681.37
342.59 K, 18003 kPa, x2 = 0.7514	707.17
342.59 K, 18004 kPa, x2 = 0.3148	682.88
342.59 K, 18988 kPa, x2 = 0.7514	711.38
342.59 K, 19000 kPa, x2 = 0.3148	684.38
342.59 K, 20000 kPa, x2 = 0.3148	685.86
342.59 K, 20006 kPa, x2 = 0.7514	716.85
342.59 K, 21010 kPa, x2 = 0.7514	721.31
342.59 K, 21018 kPa, x2 = 0.3148	687.3
342.59 K, 22004 kPa, x2 = 0.7514	725.37
342.59 K, 22006 kPa, x2 = 0.3148	688.68
342.59 K, 23009 kPa, x2 = 0.7514	729.36
342.59 K, 23014 kPa, x2 = 0.3148	690.13
342.59 K, 24006 kPa, x2 = 0.7514	733.15
342.59 K, 24010 kPa, x2 = 0.3148	691.48
342.59 K, 24951 kPa, x2 = 0.7514	736.71
342.59 K, 25016 kPa, x2 = 0.3148	692.87
342.68 K, 4004 kPa, x2 = 0.0218	646.95
342.68 K, 5003 kPa, x2 = 0.0218	648.26
342.68 K, 6004 kPa, x2 = 0.0218	649.55
342.68 K, 7009 kPa, x2 = 0.0218	650.86
342.68 K, 7996 kPa, x2 = 0.0218	652.09
342.68 K, 9017 kPa, x2 = 0.0218	653.32
342.68 K, 9997 kPa, x2 = 0.0218	654.54
342.68 K, 11003 kPa, x2 = 0.0218	655.71
342.68 K, 11998 kPa, x2 = 0.0218	656.85
342.68 K, 13010 kPa, x2 = 0.0218	657.99
342.68 K, 14002 kPa, x2 = 0.0218	659.11
342.68 K, 15008 kPa, x2 = 0.0218	660.22
342.68 K, 16006 kPa, x2 = 0.0218	661.28
342.68 K, 17003 kPa, x2 = 0.0218	662.36
342.68 K, 18003 kPa, x2 = 0.0218	663.38
342.68 K, 19002 kPa, x2 = 0.0218	664.4
342.68 K, 20005 kPa, x2 = 0.0218	665.4
342.68 K, 21007 kPa, x2 = 0.0218	666.43
342.68 K, 22003 kPa, x2 = 0.0218	667.43
342.68 K, 23010 kPa, x2 = 0.0218	668.42
342.68 K, 24005 kPa, x2 = 0.0218	669.41
342.68 K, 25003 kPa, x2 = 0.0218	670.37
342.71 K, 13106 kPa, x2 = 0.9496	500.65
342.71 K, 13985 kPa, x2 = 0.9496	541.93
342.71 K, 15012 kPa, x2 = 0.9496	579.95
342.71 K, 16000 kPa, x2 = 0.9496	609.5
342.71 K, 17009 kPa, x2 = 0.9496	634.13
342.71 K, 17984 kPa, x2 = 0.9496	654.42
342.71 K, 18996 kPa, x2 = 0.9496	672.31
342.71 K, 19994 kPa, x2 = 0.9496	687.85
342.71 K, 20999 kPa, x2 = 0.9496	701.79
342.71 K, 22001 kPa, x2 = 0.9496	714.18
342.71 K, 23009 kPa, x2 = 0.9496	725.67
342.71 K, 23985 kPa, x2 = 0.9496	735.74
342.71 K, 24518 kPa, x2 = 0.9496	740.87
342.73 K, 8002 kPa, x2 = 0.5085	670.04
342.73 K, 9011 kPa, x2 = 0.5085	673.34
342.73 K, 10003 kPa, x2 = 0.5085	676.47
342.73 K, 11006 kPa, x2 = 0.5085	679.46
342.73 K, 12005 kPa, x2 = 0.5085	682.3
342.73 K, 13011 kPa, x2 = 0.5085	685.03
342.73 K, 14001 kPa, x2 = 0.5085	687.62
342.73 K, 15001 kPa, x2 = 0.5085	690.13
342.73 K, 16006 kPa, x2 = 0.5085	692.58
342.73 K, 17007 kPa, x2 = 0.5085	694.92
342.73 K, 17999 kPa, x2 = 0.5085	697.18
342.73 K, 19004 kPa, x2 = 0.5085	699.4
342.73 K, 20003 kPa, x2 = 0.5085	701.54
342.73 K, 21007 kPa, x2 = 0.5085	703.69
342.73 K, 22001 kPa, x2 = 0.5085	705.73
342.73 K, 23008 kPa, x2 = 0.5085	707.8
342.73 K, 23998 kPa, x2 = 0.5085	709.81
342.73 K, 25003 kPa, x2 = 0.5085	711.79
351.97 K, 7006 kPa, x2 = 0.3148	652.07
351.97 K, 8006 kPa, x2 = 0.3148	654.34
351.97 K, 9004 kPa, x2 = 0.3148	656.45
351.97 K, 10010 kPa, x2 = 0.3148	658.6
351.97 K, 11002 kPa, x2 = 0.3148	660.62
351.97 K, 12003 kPa, x2 = 0.3148	662.65
351.97 K, 13003 kPa, x2 = 0.3148	664.59
351.97 K, 14001 kPa, x2 = 0.3148	666.48
351.97 K, 15008 kPa, x2 = 0.3148	668.29
351.97 K, 15998 kPa, x2 = 0.3148	670.12
351.97 K, 17018 kPa, x2 = 0.3148	671.87
351.97 K, 17988 kPa, x2 = 0.3148	673.47
351.97 K, 19003 kPa, x2 = 0.3148	675.21
351.97 K, 20004 kPa, x2 = 0.3148	676.85
351.97 K, 21004 kPa, x2 = 0.3148	678.45
351.97 K, 22002 kPa, x2 = 0.3148	680.02
351.97 K, 22992 kPa, x2 = 0.3148	681.54
351.97 K, 23999 kPa, x2 = 0.3148	683.05
351.97 K, 25008 kPa, x2 = 0.3148	684.53
352.3 K, 12013 kPa, x2 = 0.7514	641.2
352.3 K, 13001 kPa, x2 = 0.7514	649.87
352.3 K, 14004 kPa, x2 = 0.7514	657.71
352.3 K, 15036 kPa, x2 = 0.7514	665.3
352.3 K, 16003 kPa, x2 = 0.7514	671.66
352.3 K, 17017 kPa, x2 = 0.7514	677.97
352.3 K, 18016 kPa, x2 = 0.7514	683.63
352.3 K, 18998 kPa, x2 = 0.7514	689.01
